Measured values reported in US20110124604A1, “PHOSPHOLIPID RECEPTORS AS TARGETS FOR ENHANCING DRUG PERMEABILITY TO SELECTED TISSUES” (priority 2006, published 2011).
Entries after “also recorded” stand apart in the source; their conditions may differ. One block for each molecule: values may come before it.

Tests used:
[1] = system: bovine brain microvessel endothelial cell (BBMEC) monolayers; experiment: Permeability of confluent BBMEC monolayers (FDX-3000 flux); type: cell-based; conditions: for effect on BBMEC permeability in words: 0.1, 1 and 10 uM; for onset of permeability effect: earliest time point tested 15 min
[2] = system: BBMEC monolayers; experiment: Polarity studies: apical or basolateral application on BBMEC monolayers; type: cell-based, bovine
Experimental: (§1) The permeability effects of LPA and S1P were examined in various microvessel endothelial cell preparations. Primary bovine and porcine brain microvessel endothelial cells (BBMEC and PBMEC, respectively) were collected from the gray matter of fresh cow and pig cerebral cortices using a combination of enzymatic digestion and centrifugal separation methods previously described. The BBMECs and the PBMEC were seeded (50,000 cells/cm2) on collagen coated, fibronectin treated, 6-well Transwell polycarbonate membrane inserts (0.4 um pore/24 mm diameter). The culture media consisted of: 45% minimum essential medium eagle (MEM), 45% Ham's P 12 nutrient mix, 10 mM HEPES, 13 mM sodium bicarbonate, 50 ug/ml gentamicin, 10% equine serum, 2.5 ug/ml amphotericin B, and 100 ug/ml heparin. […]
For studies examining the functional polarity of LPA and S1P […] of the phospholipids were applied to either the apical or basolateral side of confluent brain microvessel endothelial cell monolayers. There was 30 min AB pretreatment followed by treatment with either LPA and S1P on either apical and/or basolateral side and the flux of FDX-3000 across the monolayer was measured. Permeability across the cell monolayers was determined by adding 10 uM fluorescein-labeled dextran (FDX-3000; MW 3000) to the donor compartment. […] Samples were analyzed as described above.

[3] = system: blood-brain barrier; type: in vivo, mouse; conditions: 15 minutes, mice
Experimental: FIG. 12. Adult female Balb/c mice were anesthetized with ketamine xylazine cocktail, and given a bolus i.v. (tail vein) injection of the near infrared fluorescent dye, rhodamine 800 (3.2 μmol/kg) either alone or in the presence of LPA (1.0 mg/kg) or the combination of LPA and S1P (0.1 mg/kg). Mice were sacrificed at 15 minutes following injection of rhodamine 800 and following perfusion with formalin through cardiac puncture, the brain was removed and sliced (3 mm) coronally. The appearance of rhodamine 800 was visualized using an Odyssey near infrared imaging system. […] The rhodamine 800 is confined primarily to the cerebral spinal fluid present in the ventricles (the small bright regions observed in the various brain slices). […] This is evident by the intense bright fluorescence of the brain slices in the LPA treated mouse.

[4] = In vivo permeability study, 3H-methotrexate tissue distribution in mice; set-up: species or system mouse; conditions: female, Balb/c, mouse, brain / plasma, intravenous, 4 uCi total activity; methotrexate alone; 15 minutes after systemic administration; read-out: brain to plasma ratio of 3H-methotrexate in control mice
Experimental: (§2) FIG. 11. Bar graph showing 20 fold increase in ^3H-methotrexate uptake in mouse brain when LPA is present. Adult female Balb/c mice were administered radiolabeled methotrexate via bolus tail vein injection. The radiolabeled methotrexate was given either alone, or in the presence of 1.0 mg/kg LPA. Fifteen minutes after injection of radiolabeled methotrexate, the mice were sacrificed and blood and tissue (brain, lung, kidney and liver) samples removed. The brain was homogenized and the cerebral microvascular endothelial cells were separated from the rest of the brain via centrifugation in 13% dextran solution at 7500×g for 15 minutes. Samples of the brain parachyma were removed for determination of radioactivity along with other tissue homogenates. Under normal conditions less than 1% of the injected dose of radiolabeled methotrexate was delivered to the brain. However, in the presence of LPA, an approximately 20-fold enhancement of radiolabeled methotrexate delivery to the brain was observed.
(§3) Female Balb/c mice were used to assess BBB permeability in vivo. Mice received a bolus injection (ml/kg) of ^3H-methotrexate (4 uCi total activity) via the tail vein. The radiolabeled methotrexate was given in combination with either LPA (1 mg/kg) or vehicle (0.25% bovine serum albumin in phosphate buffered saline solution). Fifteen minutes after the injection of methotrexate, mice were anesthetized using intraperitoneal injection of ketamine and xylazine and a sample of blood was removed by cardiac puncture. Following the blood sample, mice were sacrificed and various tissues including, the brain, lung, liver and kidney, were removed for determination of 3H-methotrexate. Blood samples were spun for 8-10 minutes and 100 uL of plasma was collected. Tissue samples were weighed and homogenized with double the volume of tissue solubilizing agent (Scintigest™, Fisher Scientific). A 200 uL aliquot of the tissue homogenate was used to analyse the tissue samples. The samples were then mixed with Ultima Gold™ (Perkin Elmer) scintillation cocktail and analysed by liquid scintillation counter (Perkin Elmer) to determine the amount of ^3H-methotrexate present in the blood and tissue. The distribution of ^3H-methotrexate was based on the ratio of the radioactivity in the tissue versus the radioactivity in the plasma sample.

[5] = system: blood-brain barrier; experiment: as above; set-up: species or system mouse
Experimental: as §2, §3

[6] = system: blood-brain barrier; experiment: Rat cranial window model, clearance of FDX 10 kDa; type: in vivo; conditions: LPA 10 uM
Experimental: Cerebral vascular permeability was also evaluated using the rat cranial window model. For these studies male Wistar-Furth rats (n=15) were anesthetized (Inactin; thiobutabarbital 100 mg/kg ip), and a tracheotomy was performed. The rats were mechanically ventilated with room air and supplemental oxygen. A catheter was placed in the femoral artery for the measurement of systemic blood pressure and to obtain blood samples. A catheter was placed in the femoral vein for injection of intravascular tracer FDX 10 10a. […] Blood gases were also monitored and maintained within normal limits. […]
Permeability of the BBB was evaluated by calculating the clearance of FDX 10 kDa (10^−6 ml/s) from the area of parietal cortex exposed by the craniotomy, as previously described (Mayhan and Heistad, Am J. Physiol, 248: H712-H718, 1985; Mayhan, Brain Research, 927: 144-152, 2002). Briefly, the suffusate fluid was collected in glass test tubes with the aide of a fraction collector, and the concentration of FDX in the suffusate fluid during topical application of vehicle (saline) or LPA (10 μM) was determined using a spectrofluorometer. […] The clearance of 1010a FDX was calculated by multiplying the suffusate-to-plasma concentration by the suffusate flow rate (Mayhan and Heistad, Am J. Physiol, 248: H712-H718, 1985; Mayhan, Brain Research, 927: 144-152, 2002). […]

[7] = system: porcine brain microvessel endothelial cells (PBMEC); experiment: Permeability of porcine BMEC monolayers (FDX-3000 flux); type: cell-based; conditions: LPA 0.1, 1 and 10 uM
Experimental: as §1, with “diameter).” for “diameter). The culture media consisted of: 45% minimum essential medium eagle (MEM), 45% Ham's P 12 nutrient mix, 10 mM HEPES, 13 mM sodium bicarbonate, 50 ug/ml gentamicin, 10% equine serum, 2.5 ug/ml amphotericin B, and 100 ug/ml heparin.”
Permeability studies were performed on confluent BBMEC and PBMEC, monolayers at […]. […] Permeability across the cell monolayers was determined by adding 10 uM fluorescein-labeled dextran (FDX-3000; MW 3000) to the donor (apical) compartment. […] The concentration of FDX-3000 in the donor and receiver samples was measured spectrofluorometrically using a Shimadzu RFU5000 spectrofluorometer (Shimadzu Scientific Instruments, Columbia, Md., USA) with Ex (7 v) at 488 nm and Em (2 k.) at 510 nm. Permeability was expressed as the percent transfer of the fluorescent marker across the monolayers. The percent transfer was determined by dividing the cumulative concentration in the receiver compartment by the original concentration in the donor compartment at time zero. Permeability coefficients were calculated from the following formula: […]

[8] = LPA 1 mg/kg i.v., 15 minutes, mice

Molecule: CCO [Ethanol, ethanol, reference compound]
- increase in BBMEC monolayer permeability ([1]; ethanol 50 mM): 3 fold

Molecule: CCCCCCCCCCCCC/C=C/[C@@H](O)[C@@H](N)COP(=O)(O)O [S1P, sphingosine 1-phosphate]
- decrease in BBMEC monolayer permeability, applied apically or basolaterally ([2]; S1P 10 uM): approximately 2 fold
- effect of S1P on the LPA-induced increase in rhodamine 800 brain distribution ([3]; LPA 1.0 mg/kg and S1P 0.1 mg/kg i.v.): prevents the increases
- effect on BBMEC permeability in words ([1]; FDX-3000): equally as robust decrease in permeability; also recorded: decreased the permeability of FDX-3000; also recorded: concentration-dependent decreases
- onset of permeability effect ([1]; BBMEC): ≤ 15 min
- effect on the BBMEC permeability ([1]; S1P 0.1 uM): no significant effect
- decrease in permeability of BBMEC ([1]; S1P 1 and 10 uM): 2 fold
- effect of S1P on the permeability increase induced by LPA ([1]; S1P (10 uM) co-administered with LPA, BBMEC): completely overcome; also recorded: totally prevented; also recorded: abolished
- effect of S1P on the permeability effect of ethanol ([1]; ethanol 50 mM and S1P, BBMEC): abolished; also recorded: decrease in permeability
- effect of S1P on the permeability effect of horse serum ([1]; horse serum 10% and S1P, BBMEC): abolished; also recorded: decreased the permeability effect
- duration of permeability effect ([1]; in the presence of S1P): 90 min

- Kp at 15 min [4]: ~0.02
- share of the injected dose delivered to the brain ([5]; radiolabeled methotrexate alone, normal conditions, mice): less than 1%
Molecule: CN(Cc1cnc2nc(N)nc(N)c2n1)c1ccc(C(=O)N[C@@H](CCC(=O)O)C(=O)O)cc1 [^3H-methotrexate, methotrexate, reference compound]

Molecule: lysophosphatidic acid [LPA]
- increase in permeability following apical or basolateral application ([2]; LPA 10 uM, BBMEC): 2 fold
- onset of effect on cerebral vascular permeability [6]: rapid in onset (within minutes)
- reversal of permeability after LPA was stopped [6]: returned to baseline levels extremely rapidly; also recorded: equally rapid in returning to baseline permeability
- rhodamine 800 delivery to the brain with LPA ([3]; LPA 1.0 mg/kg i.v. with rhodamine 800 3.2 μmol/kg): substantially greater rhodamine 800 was delivered to the brain
- effect on BBMEC permeability in words ([1]; FDX-3000): concentration-dependent increase
- onset of permeability effect ([1]; BBMEC): ≤ 15 min
- increase in the permeability of BBMEC monolayers ([1]; LPA 10 uM, FDX-3000): 2 fold
- increase in monolayer permeability ([1]; LPA 0.1 and 1 uM, FDX-3000, BBMEC): ~1.5 fold
- effect on 3H-methotrexate accumulation in liver or kidney [5, 8]: no significant increases; also recorded: no effect
- increase in 3H-methotrexate accumulation in the lung [5, 8]: approximately 3 fold
- brain to plasma ratio of 3H-methotrexate with LPA ([5]; LPA 1 mg/kg, 15 minutes after administration, mice): approximately 20%
- onset of action in the mouse ([5]; LPA, mouse): ≤ 15 min
- effect on porcine BMEC permeability in words [7]: concentration-dependent increase
